In patent US11452758B2, “Antimicrobial peptide derived from LL37 peptide and uses thereof” (INDUSTRY-ACADEMIC COOPERATION FOUNDATION, CHOSUN UNIVERSITY, priority 2018, dated 2022):
≈ marks a conversion by molar mass, not a printed value.

Tests used:
[1] = test system: Acinetobacter baumannii KCTC 2508; format: cell-based; settings: peptide 100 μg/ml with 10.7 nM trypsin, 10 minutes at 37° C.; A. baumannii KCTC 2508
Protocol: To determine the activity of the peptides, which have been prepared by the method of Example 1, in the presence of trypsin as one type of proteases, peptide stability against protease was determined by radial diffusion assay.
Specifically, among the bacterial strains that are described in the above Table 2, Acinetobacter baumannii KCTC 2508 cells were cultured to a mid-log phase in MHB medium, and, after diluting the cells to a cell concentration of 2×10^5 cells/10 ml, the cells were admixed with agarose which has been adjusted to final concentration of 1% and then evenly spread and solidified on a Petri dish. After that, the peptide adjusted to a concentration of 100 μg/ml was admixed with 10.7 nM trypsin and reacted for 10 minutes at 37° C. After applying a paper disk (diameter: 6 mm) on the solidified Petri dish, the peptide obtained after the reaction with trypsin was aliquoted thereto in an amount of 25 μl. After culture for 18 hours at 37° C., diameter of the clear zone around the paper disk was measured so that the level of antimicrobial activity for Acinetobacter baumannii KCTC 2508 was determined.

[2] = test system: Human macrophage cells (U937) infected with Acinetobacter baumannii KCTC 2508; experiment: Expression of inflammatory cytokines, Western blot and real time RT-PCR; format: cell-based; settings: U937 infected with A. baumannii KCTC 2508, peptide added 1 hour after infection, sample after 9 hours
Protocol: To see whether or not a change in expression of inflammatory cytokines in macrophage is caused by the peptides that are prepared by the method of above Example 1, determination was made by Western blot and real time reverse transcription polymerase chain reaction.
Specifically, Acinetobacter baumannii KCTC 2508 cells were cultured to a mid-log phase in MHB medium, and then diluted to a cell concentration of 1×10^7 cells/ml in physiological saline. Human macrophage cells (U937) were then infected with the resulting cells in time-dependent manner to yield the first sample, and another macrophage cells were infected with Acinetobacter baumannii KCTC 2508 cells, which have been diluted to a concentration of 1×10^7 cells, and added with, 1 hour after the infection, mother peptide LL37 or the homologous peptide to collect the second sample after 9 hours. Both collected samples were treated with cell lysis buffer to obtain the supernatant (sup) and pellet (lysate). Thereafter, by Western blot and real time reverse transcription polymerase chain reaction, a change in the expression level of inflammatory cytokines was examined.

[3] = test system: S. typhimurium KCTC 1925; format: cell-based, Salmonella typhimurium; settings: KCTC 1925, 18 h
Description: (§1) To compare the antimicrobial activity among the peptides produced by the method of Example 1, the inventors of the present invention measured the minimal growth inhibitory concentration (MIC), which is minimum concentration of the peptide not allowing any […] of bacterial cells.
(§2) Specifically, the bacterial strains described in the following Table 2 were purchased and cultured to a mid-log phase in MHB (Mueller Hinton Broth) medium. Then, after dilution to bacterial cell concentration of 2×10^5 cells/50 μl, the cells were inoculated to a microtiter plate (NUNC, USA). Thereafter, LL37-1, LL37-2, LL37-3 or LL37-4 peptide which has been synthesized in Example 1 above was subjected to serial dilution, ½ times for each, in a 96-well plate. After adding the peptides in an amount of 50 μl to the cell plate, the cells were cultured for 18 hours at 37° C. By using a microtiter plate reader (Merck Elisa reader, Germany), the absorbance was measured at a wavelength of 600 nm to determine the MIC value of each bacterial strain. As a control group, LL37 as a mother peptide was used and subjected to the same process as above to determine the MIC value of each strain.

[4] = test system: S. aureus ATCC 25923; format: cell-based, Staphylococcus aureus; settings: ATCC 25923, 18 h
Description: as §1, §2

[5] = Cytotoxicity in normal cell line (MTT); format: cell-based, human; settings: human
Protocol: To determine the cytotoxicity of the peptides produced by the method of Example 1 in normal cell line, cytotoxicity was measured by using normal human keratinocyte cell line (HaCaT) and normal human fibroblast cell line (Hs27).
Specifically, normal human keratinocyte (HaCaT) cells and normal human fibroblast (Hs27) cells, which have been cultured in DMEM medium containing 10% FBS (fetal bovine serum), were aliquoted in a microtiter plate to have 1×10^4 cells per well. After culturing them for 24 hours, the cells were subjected to a treatment with LL37, LL37-1, LL37-2, LL37-3 or LL37-4 peptide, each at concentration of 0.5, 1, 2, 4, 8, 16 or 32 μM/well, followed by reaction for 24 hours in a 5% CO2 incubator. After culture, a reaction solution containing 5 mg/ml MTT (Thiazolyl Blue Tetrazolium Bromide) dissolved in phosphate buffered saline (PBS) was added in an amount of 10 μl to each well and the reaction was allowed to occur for 1 hour. After that, the supernatant was discarded, and, by dissolving MTT crystals that are formed by adding 200 μl DMSO (dimethyl sulfoxide), the absorbance at 570 nm was measured to determine the cell survival ability.

[6] = test system: L. monocytogenes KCTC 3710; format: cell-based, Listeria monocytogenes; settings: KCTC 3710, 18 h
Description: as §1, §2

Structure (SMILES): CC[C@H](C)[C@H](NC(=O)[C@H](CCCCN)NC(=O)[C@H](CCC(=O)O)NC(=O)[C@H](CCCCN)NC(=O)[C@H](CO)NC(=O)[C@H](CCCCN)NC(=O)[C@H](CCCNC(=N)N)NC(=O)[C@H](Cc1ccccc1)NC(=O)[C@H](Cc1ccccc1)NC(=O)[C@H](CC(=O)O)NC(=O)CNC(=O)[C@H](CC(C)C)NC(=O)[C@@H](N)CC(C)C)C(=O)NCC(=O)N[C@@H](CCCCN)C(=O)N[C@@H](CCC(=O)O)C(=O)N[C@@H](Cc1ccccc1)C(=O)N[C@@H](CCCCN)C(=O)N[C@@H](CCCNC(=N)N)C(=O)N[C@H](C(=O)N[C@H](C(=O)N[C@@H](CCC(N)=O)C(=O)N[C@@H](CCCNC(=N)N)C(=O)N[C@H](C(=O)N[C@@H](CCCCN)C(=O)N[C@@H](CC(=O)O)C(=O)N[C@@H](Cc1ccccc1)C(=O)N[C@@H](CC(C)C)C(=O)N[C@@H](CCCNC(=N)N)C(=O)N[C@@H](CC(N)=O)C(=O)N[C@@H](CC(C)C)C(=O)N[C@H](C(=O)N1CCC[C@H]1C(=O)N[C@@H](CCCNC(=N)N)C(=O)N[C@H](C(=O)N[C@@H](CCC(=O)O)C(=O)N[C@@H](CO)C(N)=O)[C@@H](C)O)C(C)C)[C@@H](C)CC)C(C)C)[C@@H](C)CC [LL37]
- antimicrobial activity after reaction with trypsin [1]: did not exhibit any antimicrobial activity
- expression level of HMGB-1 and late cytokine (IL-1b and TNF-α) [2]: has increased more
- Minimal inhibitory concentration [3]: 32 µM (≈ 144 µg/mL)
- Minimal inhibitory concentration [4]: 16 µM (≈ 71.9 µg/mL)
- viability at 24 h, 0.5 µM ([5]; HaCaT keratinocyte cells): 99%
- viability at 24 h, 1 µM ([5]; HaCaT keratinocyte cells): 99%
- viability at 24 h, 2 µM ([5]; HaCaT keratinocyte cells): 96%
- viability at 24 h, 4 µM ([5]; HaCaT keratinocyte cells): 98%
- viability at 24 h, 8 µM ([5]; HaCaT keratinocyte cells): 99%
- viability at 24 h, 16 µM ([5]; HaCaT keratinocyte cells): 83%
- viability at 24 h, 32 µM ([5]; HaCaT keratinocyte cells): 17%
- viability at 24 h, 0.5 µM ([5]; Hs27 fibroblast cells): 95%
- viability at 24 h, 1 µM ([5]; Hs27 fibroblast cells): 90%
- viability at 24 h, 2 µM ([5]; Hs27 fibroblast cells): 90%
- viability at 24 h, 4 µM ([5]; Hs27 fibroblast cells): 89%
- viability at 24 h, 8 µM ([5]; Hs27 fibroblast cells): 90%
- viability at 24 h, 16 µM ([5]; Hs27 fibroblast cells): 82%
- viability at 24 h, 32 µM ([5]; Hs27 fibroblast cells): 19%
- Minimal inhibitory concentration [6]: 64 µM (≈ 288 µg/mL)
